Experimental data from patent publication US8940728B2 (priority 2012, dated 2015).
Read-outs that look alike come from different tables or passages of the source.

Legend:
[1] = biological target: T1, a3b4 nAChRs (Homo sapiens, UniProt P30926+P32297); assay: FLIPR Ca+2 flux assay, epibatidine-induced calcium response, SH-SYSY cells; format: cell-based
Description: (§1) The HEK293 (a3b4, a4b2 and a7) and SH-SYSY cell lines (a3b4) expressing nAChRs are used. Validated assays optimized with respect to sensitivity, dynamic range, signal intensity and stability for chemical probe validation and SAR refinement are used.
(§2) Nicotinic functional assays are performed using the Molecular Devices FLIPR® Calcium 5 Assay Kit. HEK293 cells overexpressing α3β4, α4β2 or α7 (50,000 cells per well in 100 μl growth media) and are plated in clear bottom black walled 96-well microplates and incubated for 24-48 hours at 37° C., 5% CO2 until a 80-90% confluent monolayer is formed. On the day of the assay, 100 μl of Calcium 5 Dye is added to each well. Following addition of dye, cells are incubated at 25° C. for 60 minutes. Following dye loading, 50 μl of a 5× solution of reference or test compound of appropriate concentration range (0.01-30 μM), prepared in 20 mM HEPES pH 7.4 in HBSS, is added to each well. Plates are then transferred to the Molecular Devices Flexstation® which transfers 50 μL of a 5× solution (500 nM) of epibatine to each well to initiate the Ca+2 flux. […] The RFU (relative fluorescence units) in the presence of the test or reference compounds is then expressed on the percent scale. The percent inhibition of epibatidine induced Ca^+2 flux is calculated as follows: % inhibition=100%−% RFU (relative fluorescence units). […]

[2] = biological target: T1, a3b4 nAChRs; assay: Relative potency on epibatidine-induced calcium response at a3b4 nAChRs; format: cell-based
Description: as §1
Nicotinic functional assays are performed using the Molecular Devices FLIPR® Calcium 5 Assay Kit. HEK293 cells overexpressing α3β4, α4β2 or α7 (50,000 cells per well in 100 μl growth media) and are plated in clear bottom black walled 96-well microplates and incubated for 24-48 hours at 37° C., 5% CO2 until a 80-90% confluent monolayer is formed. On the day of the assay, 100 μl of Calcium 5 Dye is added to each well. Following addition of dye, cells are incubated at 25° C. for 60 minutes. Following dye loading, 50 μl of a 5× solution of reference or test compound of appropriate concentration range (0.01-30 μM), prepared in 20 mM HEPES pH 7.4 in HBSS, is added to each well. Plates are then transferred to the Molecular Devices Flexstation® which transfers 50 μL of a 5× solution (500 nM) of epibatine to each well to initiate the Ca+2 flux. Additional wells (in quadruplicate) are prepared with no added test or reference ligand for measurement of 100% flux. The RFU (relative fluorescence units) in the presence of the test or reference compounds is then expressed on the percent scale. The percent inhibition of epibatidine induced Ca^+2 flux is calculated as follows: % inhibition=100%−% RFU (relative fluorescence units). The IC50 values for reference and test compounds are obtained by fitting normalized RFU data using Graphpad Prism software.

[3] = CNS penetration across the brain blood barrier; details: in vivo
Description: Mice are dosed with compounds. Brain to blood ratios are determined by HPLC and LC/MS/MS analysis following oral administration of the test compounds in mice.

[4] = biological target: T2, α3β4 nicotinic receptor subtype (Homo sapiens, UniProt P30926+P32297); assay: cell-based
T2 construct: SH-SYSY cells predominantly express the α3β4 nicotinic receptor subtype; endogenous in cells; host or cells: SH-SYSY (SH-SY5Y) cells
From the text: as §1

[5] = biological target: 5-HT transporter (Homo sapiens, UniProt P31645); assay: 5-HT transporter radioligand binding
Description: (§3) Established radioligand binding methods are used to evaluate the ability of the compounds to block reuptake of serotonin and dopamine in membrane preparations of synaptosomes. Equilibrium binding affinity values is determined for each compound at opioid receptors (μ and κ subtypes) and biogenic amine transporters (DAT and SERT). Where possible, binding experiments utilize membranes derived from CHO or HEK293 cells engineered to overexpress the human form of the receptor or transporter of interest. Radiolabeling of opioid receptors, and biogenic amine transporters utilizes conventional radioligands, buffers and incubation conditions according to published assays.
(§4) Test compounds, reference compounds and the radioligand (Kd value) are added to binding buffer. Assays are run with test or reference compound over a range of concentration (0.0001-10 uM) in triplicate using a 96-well sample plate containing radioligands specific for the target receptor or transporter. […] Bound radioactivity is counted in a Microbeta scintillation counter. Total bound radioactivity is estimated from triplicate wells containing no test or reference compound, together with nonspecific binding and filter blanks. The average bound radioactivity in the presence of the test compounds is expressed % inhibition=100%−% radioactivity bound. […]

[6] = biological target: T3, mu opioid receptor (mOR) (Homo sapiens, UniProt P35372); assay: Mu opioid receptor radioligand binding
T3 construct: expressed in transfected cells; host or cells: CHO or HEK293
Description: as §3, §4

[7] = biological target: T1, a3b4 nAChRs; assay: FLIPR Ca+2 flux assay, epibatidine-induced calcium response, A3B4-HEK cells; format: cell-based
Description: as §1, §2

[8] = biological target: T4, kappa opioid receptor (kOR) (Homo sapiens, UniProt P41145); assay: Kappa opioid receptor radioligand binding
T4 construct: expressed in transfected cells; host or cells: CHO or HEK293
Description: as §3, §4

[9] = Binding panel of over 50 receptors, transporters, ion channels, second messengers, growth factor receptors and enzymes; details: at physiologically relevant concentrations
From the text: The association between cigarette smoking and the presence and severity of suicidal behavior across major psychiatric disorders may be related to lower brain serotonin function in smokers with depression).

T2 sequence (P32297 32-505): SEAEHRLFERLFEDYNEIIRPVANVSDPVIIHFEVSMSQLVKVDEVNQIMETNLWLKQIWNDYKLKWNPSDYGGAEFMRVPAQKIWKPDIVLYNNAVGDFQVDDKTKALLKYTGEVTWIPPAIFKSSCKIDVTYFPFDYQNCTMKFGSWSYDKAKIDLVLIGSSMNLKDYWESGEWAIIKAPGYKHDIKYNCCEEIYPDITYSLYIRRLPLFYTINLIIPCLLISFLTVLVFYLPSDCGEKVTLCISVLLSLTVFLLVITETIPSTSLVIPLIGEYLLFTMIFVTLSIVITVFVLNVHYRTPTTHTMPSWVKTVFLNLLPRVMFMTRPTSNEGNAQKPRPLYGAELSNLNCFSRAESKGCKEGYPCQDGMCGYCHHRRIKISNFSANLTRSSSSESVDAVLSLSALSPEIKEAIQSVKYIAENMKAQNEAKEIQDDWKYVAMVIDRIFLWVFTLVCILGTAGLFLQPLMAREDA
T2 sequence (P30926 22-498): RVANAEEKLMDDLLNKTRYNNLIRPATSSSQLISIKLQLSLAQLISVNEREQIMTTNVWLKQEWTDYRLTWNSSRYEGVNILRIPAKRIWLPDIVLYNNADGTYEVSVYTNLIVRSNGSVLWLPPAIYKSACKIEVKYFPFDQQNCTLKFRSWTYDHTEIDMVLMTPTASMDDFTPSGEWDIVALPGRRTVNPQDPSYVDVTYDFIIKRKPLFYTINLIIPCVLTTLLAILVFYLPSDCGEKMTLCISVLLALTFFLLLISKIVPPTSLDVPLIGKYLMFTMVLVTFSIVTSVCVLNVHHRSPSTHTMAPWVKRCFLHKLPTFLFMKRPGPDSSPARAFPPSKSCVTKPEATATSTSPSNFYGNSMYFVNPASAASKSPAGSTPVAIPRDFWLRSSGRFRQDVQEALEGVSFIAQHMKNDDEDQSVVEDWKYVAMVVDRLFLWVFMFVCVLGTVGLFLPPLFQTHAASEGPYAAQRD
T1 sequence (P30926 22-498): as above
T1 sequence (P32297 32-505): as the sequence (P32297 32-505) above
Sequence of 5-HT transporter (P31645 whole entry): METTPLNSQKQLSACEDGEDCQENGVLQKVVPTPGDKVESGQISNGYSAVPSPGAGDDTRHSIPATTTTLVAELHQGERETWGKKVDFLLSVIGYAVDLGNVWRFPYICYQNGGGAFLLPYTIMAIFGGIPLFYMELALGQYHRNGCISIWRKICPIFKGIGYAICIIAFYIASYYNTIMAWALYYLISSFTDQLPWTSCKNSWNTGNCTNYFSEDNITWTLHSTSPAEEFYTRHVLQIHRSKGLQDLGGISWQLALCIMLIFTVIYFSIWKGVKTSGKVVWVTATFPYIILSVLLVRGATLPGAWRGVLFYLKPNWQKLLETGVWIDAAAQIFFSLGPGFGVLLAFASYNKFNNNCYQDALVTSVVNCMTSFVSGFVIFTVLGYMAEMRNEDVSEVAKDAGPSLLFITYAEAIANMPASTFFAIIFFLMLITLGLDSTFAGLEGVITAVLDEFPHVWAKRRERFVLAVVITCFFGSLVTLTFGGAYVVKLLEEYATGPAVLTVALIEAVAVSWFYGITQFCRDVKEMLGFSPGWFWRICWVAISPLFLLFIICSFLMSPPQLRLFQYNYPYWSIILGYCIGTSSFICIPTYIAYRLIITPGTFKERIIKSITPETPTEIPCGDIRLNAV
T4 sequence (P41145 whole entry): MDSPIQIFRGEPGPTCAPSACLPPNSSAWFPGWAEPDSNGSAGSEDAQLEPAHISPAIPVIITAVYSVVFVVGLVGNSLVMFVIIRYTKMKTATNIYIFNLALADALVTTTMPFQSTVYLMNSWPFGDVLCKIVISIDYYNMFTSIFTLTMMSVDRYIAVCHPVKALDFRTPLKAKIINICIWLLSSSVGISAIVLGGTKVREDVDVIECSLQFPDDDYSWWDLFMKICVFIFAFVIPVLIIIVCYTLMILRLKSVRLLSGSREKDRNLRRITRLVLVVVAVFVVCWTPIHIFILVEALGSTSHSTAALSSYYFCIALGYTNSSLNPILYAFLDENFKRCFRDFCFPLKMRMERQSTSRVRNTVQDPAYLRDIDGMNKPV
T3 sequence (P35372 whole entry): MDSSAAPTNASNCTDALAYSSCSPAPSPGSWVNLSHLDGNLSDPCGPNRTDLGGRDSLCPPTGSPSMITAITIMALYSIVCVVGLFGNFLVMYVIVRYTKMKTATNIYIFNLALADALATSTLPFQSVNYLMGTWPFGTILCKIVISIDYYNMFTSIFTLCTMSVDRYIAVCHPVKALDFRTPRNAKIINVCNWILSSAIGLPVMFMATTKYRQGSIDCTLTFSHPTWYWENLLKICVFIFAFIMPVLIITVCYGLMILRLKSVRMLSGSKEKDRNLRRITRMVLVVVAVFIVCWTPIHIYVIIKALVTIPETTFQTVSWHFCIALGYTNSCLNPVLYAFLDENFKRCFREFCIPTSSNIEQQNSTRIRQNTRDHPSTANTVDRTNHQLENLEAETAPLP

Molecule | IC50 ([1]; SH-SYSY cells, read-out: IC50 (uM) SH-SYSY, inhibition of epibatidine-induced calcium response) | IC50 ([2]; reference value for the ratios of Table 4, read-out: Potency of 18-MC at a3b4 nAChRs taken as reference) | Ratio from 18-MC (relative potency at a3b4 nAChRs) ([2]; relative to 18-MC = 1 (4 uM)) | Crossing of the BBB and concentration in brain [3] | IC50 ([4]; Caliper, read-out: IC50 (uM) Caliper, inhibition of epibatidine-induced calcium response) | IC50 ([4]; SH-SYSY cells, preliminary studies by Caliper Life Sciences, read-out: IC50 as antagonist for epibatine induced Ca+2 flux) | Affinity to the 5-HT transporter [5] | IC50 [1] | Affinity at mu opioid receptors [6] | IC50 [7] | IC50 ([4]; IC50 (uM) Caliper, inhibition of epibatidine-induced calcium response, Caliper) | IC50 ([4]; IC50 as antagonist for epibatine induced Ca+2 flux, SH-SYSY cells, preliminary studies by Caliper Life Sciences) | Affinity at kappa opioid receptors [8] | Targets bound in the panel [9] | Potency as inhibitor of epibatidine-induced calcium response compared with 18-MC and noribogaine ([2]; in words)
COCC[C@H]1CC2CN3CCc4c([nH]c5ccccc45)[C@](C(=O)OC)(C2)[C@H]13 [Compound 18-MC, 18-methoxycoronaridine] | 3.9 µM | 4 µM | 1 | cross the BBB and reach micromolar concentrations in brain | 3.9 µM | 3.89 µM | – | – | – | – | – | – | – | – | –
CC[C@H]1CC2C[C@H]3c4[nH]c5ccc(O)cc5c4CCN(C2)C13 [Noribogaine, 12-hydroxyibogamine] | – | – | – | cross the BBB and reach micromolar concentrations in brain | – | – | 50 nM | 0.3 µM | 900 nM | 18 µM | 1 µM | 0.462 µM | 1 µM | only bound to SERT, DAT, mu and kappa opioid receptors | –
Ibogaine | – | – | – | – | – | – | – | – | – | – | – | – | – | – | more potent inhibitors than 18-MC
